According to patent US8623924B2, “Compositions and methods for modulating metabolic pathways” (Nusirt Sciences, Inc., priority 2011, dated 2014):
Marks after values point to notes of the source that are not given here.

How the values were obtained:
Adipocytes (3T3-L1) = experiment: Fatty acid oxidation (3H-palmitate) in 3T3-L1 adipocytes; assay type: cell-based; settings: leucine 0.5 mM, resveratrol 200 nM
Description: High glucose medium reduced fatty acid oxidation by 46% (p<0.05).
Fatty acid oxidation was measured using ^3H-labeled palmitate oxidation, with the ^3H label trapped as water as a result of the fat oxidation. The ^3H was then measured via scintillation counter.

[1] = Body weight, weight gain and visceral adiposity in diet-induced obese mice; assay type: in vivo; settings: 6 weeks on diet
Source text: (§1) Six week old male c57/BL6 mice were fed a high-fat diet with fat increased to 45% of energy (Research Diets D12451) for 6 weeks to induce obesity.
(§2) At the of the treatment period (6 weeks) all animals were humanely euthanized, and blood and tissues collected for further experiments.

[2] = MicroPET/CT glucose and palmitate uptake in diet-induced obese mice; assay type: in vivo; settings: 6 weeks on diet
Source text: as §1
MicroPET/CT (Glucose and Palmitate Uptake): At the end of the treatment period (6 weeks of treatment) subgroups of each treatment diet group (5 animals/group, 35 animals total) were used to measure whole body glucose and palmitate uptake via PET/CT Imaging. To visualize these compounds using microPET imaging, the glucose or palmitate was labeled with fluorine-18 (108 mins half life) or carbon-11 (20 mins half life), respectively. Each mouse was fasted for 4 hours, then anesthetized using 1-3% isoflurane delivered by nose cone or in a mouse-sized induction chamber purpose-built for small animal imaging protocols. While under anesthesia the mice were injected iv with <2 mCi of each tracer, then be left for a period of time (minutes to up ˜1 hour) to allow the uptake of the tracer. During the scan, mice were kept warm using a thermostatically controlled heated bed and were treated with ophthalmic ointment prior to scanning. Following the live scan the mice were returned to their cage and revived. Mice were monitored constantly during this time. Following live data acquisition the mice were sacrificed by isoflurane overdose and organs harvested for further experiments.

[3] = Oxygen consumption/substrate utilization (metabolic chambers) in diet-induced obese mice; assay type: in vivo
Description: as §1
Oxygen Consumption/Substrate Utilization: at the end of the obesity induction period (day 0 of treatment group) and at 2 weeks and 6 weeks of treatment, oxygen consumption and substrate utilization was measured via metabolic chambers using the Comprehensive Lab Animal Monitoring Systems (CLAMS, Columbus Instruments, Columbus, Ohio) in subgroups of each treatment group. Each animal was placed in individual cages without bedding that allow automated, non-invasive data collection. Each cage is an indirect open circuit calorimeter that provides measurement of oxygen consumption, carbon dioxide production, and concurrent measurement of food intake. All mice were acclimatized to the chambers for 24 hours prior to the experiment and maintained under the regular 12:12 light:dark cycle with free access to water and food. All experiments were started in the morning and data were collected for 24 hours. Each chamber was passed with 0.6 l of air/min and was sampled for 2 min at 32-minute intervals. Exhaust O2 and CO2 content from each chamber was compared with ambient O2 and CO2 content. Food consumption was measured by electronic scales.

[4] = Indices of insulin sensitivity (plasma glucose, insulin, HOMAIR) in diet-induced obese mice; assay type: in vivo; settings: 6 weeks on diet; for Glucose (mM) / Insulin (μU/mL): plasma
Source text: Insulin sensitivity can be measured using a variety of techniques, including HOMAIR. HOMAIR, which is the homeostasis model assessment of insulin resistance can be used as a screening index of changes in insulin sensitivity. HOMAIR can be calculated via standard formula from fasting plasma insulin and glucose as follows: HOMAIR=[Insulin (uU/mL)×glucose (mM)]/22.5.
as §1, §2

C-reactive protein = experiment: Inflammatory biomarker C-reactive protein in diet-induced obese mice; assay type: in vivo; settings: 6 weeks on diet
IL-6 = experiment: Inflammatory biomarker IL-6 in diet-induced obese mice; assay type: in vivo; settings: 6 weeks on diet
MCP-1 = experiment: Inflammatory biomarker MCP-1 in diet-induced obese mice; assay type: in vivo; settings: 6 weeks on diet
Adiponectin = Adiponectin in diet-induced obese mice; assay type: in vivo; settings: 6 weeks on diet
Sirt1 [5] = molecular target: T1, Sirt1 (Mus musculus, UniProt Q923E4); experiment: Adipose tissue Sirt1 activity in diet-induced obese mice; assay type: in vivo
T1 construct: from tissue; host or cells: adipose tissue of c57/BL6 mice
T1 sequence (Q923E4 1-737): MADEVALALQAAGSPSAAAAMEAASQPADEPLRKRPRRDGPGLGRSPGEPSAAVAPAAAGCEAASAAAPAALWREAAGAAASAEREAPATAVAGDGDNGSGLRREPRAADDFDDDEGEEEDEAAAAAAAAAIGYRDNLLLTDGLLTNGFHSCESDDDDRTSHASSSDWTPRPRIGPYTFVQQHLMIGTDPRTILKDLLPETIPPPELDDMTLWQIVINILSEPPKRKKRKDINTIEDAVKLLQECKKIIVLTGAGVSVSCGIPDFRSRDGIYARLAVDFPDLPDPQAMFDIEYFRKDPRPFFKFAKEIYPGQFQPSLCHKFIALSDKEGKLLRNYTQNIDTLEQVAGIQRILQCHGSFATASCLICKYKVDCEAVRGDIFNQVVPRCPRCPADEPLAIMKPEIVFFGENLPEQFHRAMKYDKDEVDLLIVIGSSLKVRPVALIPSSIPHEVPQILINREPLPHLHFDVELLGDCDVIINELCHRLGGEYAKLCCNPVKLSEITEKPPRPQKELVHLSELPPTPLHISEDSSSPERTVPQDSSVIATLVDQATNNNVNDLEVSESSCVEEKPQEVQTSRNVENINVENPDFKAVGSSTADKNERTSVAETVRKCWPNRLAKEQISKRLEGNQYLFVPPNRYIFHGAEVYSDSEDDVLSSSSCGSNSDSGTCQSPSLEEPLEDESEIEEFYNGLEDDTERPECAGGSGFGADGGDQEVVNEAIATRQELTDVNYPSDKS

SIRT1 [6] = experiment: Sirt1 activity (fluorimetric kit), Example 5; assay type: cell-based; settings: leucine 0.5 mM, HMB 5 μM, resveratrol 200 nM; summary in Example 5
Description: Sirt1 Activity: SIRT1 activity was measured by using the SIRT1 Fluorimetric Drug Discovery Kit (BML-AK555, ENZO Life Sciences International, Inc. PA, USA). The assay measures SIRT1 activity by the degree of deacetylation of a standardized substrate containing an acetylated lysine side chain. The substrate utilized is a peptide containing […] of human […]]), an established target of SIRT1 activity; SIRT1 activity is directly proportional to the degree of deacetylation of […]. Samples were incubated with peptide substrate (25 μM), and NAD^+ (500 μM) in a phosphate-buffered saline solution at 37° C. on a horizontal shaker for 45 minutes. The reaction was stopped with the addition of 2 mM nicotinamide and a developing solution that binds to the deacetylated lysine to form a fluorophore.

irisin = experiment: Plasma irisin in diet-induced obese mice; assay type: in vivo; settings: six weeks, resveratrol 12.5 mg/kg diet, leucine 2.42%
Description: as §1
As described in Example 5, C2C12 myotubes treated with the indicated combinations of compounds were used to produce conditioned media, with which 3T3-L1 adipocytes were then treated. Fatty acid oxidation was measured as in Example 5. Irisin levels were measured by Western blot and ELISA, both in conditioned media and in plasma from mice treated according to Example 4.
ELISA: Irisin was also detected in C2C12 incubation media from treated cells and in mouse plasma using a commercial enzyme immunoassay kit obtained from Phoenix Pharmaceuticals, Inc. (Burlingame, Calif.). This kit uses an irisin (FNDC5 [16-127] fragment) and streptavidin-horseradish peroxidase detection on a microplate reader at 450 nm.

UCP1 = experiment: Subcutaneous adipose UCP1 mRNA expression in diet-induced obese mice; assay type: in vivo; settings: six weeks, resveratrol 12.5 mg/kg diet
[7] = high resveratrol 225 mg/kg diet
[8] = low resveratrol 12.5 mg/kg diet, low HMB 2 g CaHMB/kg diet, high HMB 10 g CaHMB/kg diet, leucine 2.42% of diet

Q: Which “increase in fatty acid oxidation, high glucose” value (Adipocytes (3T3-L1); high (25 mM) glucose, 4 hours, HMB 5 uM, vs. control) does the source give for `Oc1ccc(/C=C/c2cc(O)cc(O)c2)cc1` [resveratrol, 3,5,4′-Trihydroxy-trans-stilbene] here?
A: The value was “no effect”.

Q: And the “stimulation of fatty acid oxidation” value (Adipocytes (3T3-L1); HMB 5 μM, summary in Example 5)?
A: The value was “no effect”.

Q: What about the “Visceral Adipose Volume (mm^3)” value [1, 7] of the same compound?
A: Its value is 6031 ± 323^a mm^3.

Q: And the “Weight (g)” value [1, 7]?
A: The value was 38.7 ± 1.2^a g.

Q: What about the “Weight gain (g)” value [1, 7] of the same compound?
A: The value was 22.3 ± 2.4^a g.

Q: And the “Visceral Adipose Volume (mm^3)” value [1, 8]?
A: Its value is 6551 ± 575^a mm^3.

Q: And the “Weight (g)” value [1, 8]?
A: The value was 40.8 ± 2.5^a g.

Q: What about the “Weight gain (g)” value [1, 8] of the same compound?
A: The value was 20.9 ± 1.5^a g.

Q: And the “Fat oxidation (PET palmitate uptake; Muscle SUV)” value [2, 7]?
A: Its value is 2.29 ± 0.11^b SUV.

Q: What about the “Muscle Glucose Uptake (18F-deoxyglucose SUV)” value [2, 7] of the same compound?
A: Its value is 3.87 ± 0.32^a SUV.

Q: What about the “Fat oxidation (PET palmitate uptake; Muscle SUV)” value [2, 8] of the same compound?
A: Its value is 1.51 ± 0.44^a SUV.

Q: What about the “Muscle Glucose Uptake (18F-deoxyglucose SUV)” value [2, 8] of the same compound?
A: The value was 3.63 ± 1.29^a SUV.

Q: What about the “Heat Production” value [3, 7] of the same compound?
A: Its value is 0.552 ± 0.015^b.

Q: And the “Heat Production” value [3, 8]?
A: The value was 0.517 ± 0.014^a.

Q: What about the HOMAIR [4, 7] of the same compound?
A: The HOMAIR was 0.59 ± 0.26^b.

Q: What about the HOMAIR [4, 8] of the same compound?
A: The HOMAIR was 2.41 ± 0.66^a.

Q: What about the “Glucose (mM)” value [4, 7] of the same compound?
A: The value was 5.14 ± 0.75^a mM.

Q: What about the “Insulin (μU/mL)” value [4, 7] of the same compound?
A: Its value is 10.1 ± 2.7^a μU/mL.

Q: And the “Glucose (mM)” value [4, 8]?
A: The value was 5.14 ± 0.85^a mM.

Q: And the “Insulin (μU/mL)” value [4, 8]?
A: The value was 10.4 ± 1.6^a μU/mL.

Q: What about the “C-reactive protein (ng/mL)” value (C-reactive protein; [7]) of the same compound?
A: The value was 123.9 ± 35.3^a ng/mL.

Q: What about the “C-reactive protein (ng/mL)” value (C-reactive protein; [8]) of the same compound?
A: Its value is 134.8 ± 8.5^a ng/mL.

Q: And the “IL-6 (pg/mL)” value (IL-6; [7])?
A: The value was 14.1 ± 1.3^b pg/mL.

Q: And the “IL-6 (pg/mL)” value (IL-6; [8])?
A: The value was 23.2 ± 2.9^a pg/mL.

Q: What about the “MCP-1 (pg/mL)” value (MCP-1; [7]) of the same compound?
A: Its value is 27.3 ± 6.8^b pg/mL.

Q: What about the “MCP-1 (pg/mL)” value (MCP-1; [8]) of the same compound?
A: Its value is 104.4 ± 16.5^a pg/mL.

Q: What about the “Adiponectin (ng/mL)” value (Adiponectin; [7]) of the same compound?
A: The value was 14.8 ± 1.8^b ng/mL.

Q: What about the “Adiponectin” value (Adiponectin; [8]) of the same compound?
A: The value was 12.4 ± 1.1 ng/mL.

Q: And the “adipose tissue Sirt1 activity” value (Sirt1 [5]; high dose resveratrol (FIG. 10))?
A: Its value is “non-significant trend towards an increase”.

Q: And the “adipose tissue Sirt1 activity” value (Sirt1 [5]; low dose of resveratrol, HMB, or their combinations with HMB or leucine (FIG. 10))?
A: The value was “Neither resveratrol nor HMB exerted significant independent effects”.

Q: And the “stimulation of Sirt1 activity” value (SIRT1 [6])?
A: Its value is “no effect”.

Q: And the “increase in plasma irisin” value (irisin)?
A: The value was “no independent effect”.

Q: And the “increase in UCP1 expression in white subcutaneous adipose tissue” value (UCP1)?
A: Its value is “no independent effect”.
